{"source": "patent US9211244B2", "about": "“Method for anti-skin aging using caffeamide derivative” (CHINA MEDICAL UNIVERSITY, priority 2013, dated 2015)", "key": {"tyrosinase": {"target": "T1, tyrosinase (Mus musculus, UniProt P11344)", "T1 construct": "endogenous in cells; host or cells: B16 cells", "T1 sequence (P11344 19-533)": "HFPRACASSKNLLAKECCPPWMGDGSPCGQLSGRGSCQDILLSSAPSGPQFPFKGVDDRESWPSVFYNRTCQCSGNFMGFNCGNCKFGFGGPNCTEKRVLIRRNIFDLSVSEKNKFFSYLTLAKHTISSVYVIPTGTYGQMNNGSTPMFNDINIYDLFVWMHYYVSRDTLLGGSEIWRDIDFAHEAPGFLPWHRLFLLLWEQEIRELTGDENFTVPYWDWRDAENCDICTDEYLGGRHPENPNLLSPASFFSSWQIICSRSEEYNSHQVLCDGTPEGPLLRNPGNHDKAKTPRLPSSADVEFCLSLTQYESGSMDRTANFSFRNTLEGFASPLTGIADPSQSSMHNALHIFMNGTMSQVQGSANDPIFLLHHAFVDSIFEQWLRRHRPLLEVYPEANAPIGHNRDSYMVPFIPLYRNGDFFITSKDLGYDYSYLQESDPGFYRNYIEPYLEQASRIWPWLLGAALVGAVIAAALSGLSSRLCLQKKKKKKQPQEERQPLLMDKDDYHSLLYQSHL", "test": "Activity analysis of tyrosinase in B16 cells", "format": "cell-based", "settings": "5 μM to 125 μM, 48 hours", "experimental": "It has been known that tyrosinase is one of the primary protein participating in melanogenesis. In this experiment, different concentrations (5 μM to 125 μM) of the compounds of formula […] or (2) prepared in Example 1 were used to treat B16 cells (1.5×10^4) for 48 hours, and the activity of tyrosinase was analyzed by western blotting."}, "[1]": {"tested_on": "human fibroblast Hs68 cells", "test": "Cellular toxicity evaluation, MTT assay", "format": "cell-based", "settings": "24 hours", "experimental": "MTT (3-(4,5-dimethylthiazol-2-yl)-2,5-diphenyl tetrazolium bromide) assay was used to determine the cellular toxicity of the caffeamide derivatives described herein. First, different concentrations (0 μM to 100 μM) of the compounds of formula (1) or formula (2) prepared in Example 1 of the present invention were added, respectively, into a 96-well microplate which containing human fibroblast Hs68 cells (1×10^4 cells per well). After the cells were incubated in an incubator at 37° C. and 5% CO2 for 24 hours, 15 μl of MTT solution (0.5 mg/ml; dissolved in PBS) was added into the microplate and the human fibroblast Hs68 cells were incubated for 3 hours. Next, 75 μl SDS (sodium dodecyl sulfate) solution (10% SDS was dissolved in 0.01N HCl) was added into the microplate. After the cells were maintained for 24 hours, the absorbances of each well were measured at a wavelength of 570 nm by an enzyme immunoassay analyzer. Finally, the cell survival rate was calculated by the following formula to observe the cellular toxicity of compounds. The results are shown in Table 5, FIG. 10a and FIG. 10b. Cell survival rate(%)=absorbance of the experimental group/absorbance of the control group."}, "c-Fos": {"tested_on": "c-Fos", "test": "Inhibition test of AP-1 gene transcription factors, western blot", "format": "cell-based, human", "settings": "10 μM; UVB 40 mJ/cm^2", "from_the_text": "When cells are irradiated by UV rays, JNK, p38 and c-Jun in the cells will translocated into the nucleus, and c-For will translocate into the nucleus under the regulation of ERK and p38. The two subunits of c-Jun and c-Fos will combine to form an AP-1 gene transcription factor to participate in gene expression process and increase the mRNA transcription level of MMP-1. On the other hand, the two subunits can also reduce the gene expression level of procollagen al of Type I collagen. Therefore, in this experiment, the expression of AP-1 in the nucleus was analyzed by western blotting.\nHowever, after the cells were treated with the compound of formula (2) prepared in Example 1, the protein expression levels of c-Fos, p-c-Jun, and c-Jun induced by UVB were inhibited in a concentration dependent way. Specifically, when the concentration of the compound of formula (2) was 10 μM, the expression level of c-Fos was 1.1 as compared to that of the untreated cells."}, "MMP-3": {"tested_on": "MMP-3", "test": "MMP expression, western blot, UVB-irradiated Hs68 cells", "format": "cell-based, human", "settings": "25 μM; UVB 40 mJ/cm^2; 48 hours", "experimental": "(§1) Human fibroblast Hs68 cells (5×10^5) (the number of Bioresource Collection and Research Center (BCRC): 60038) were counted and incubated in a culture dish with a diameter of 10 cm (the culture dish components were adjusted by L-glutamine (4 mM) to have 1.5 g/L NaHCO3, 4.5 g/L glucose, and 90% Dulbecco's Modified Eagle's Medium with 10% fetal bovine serum (FBS)). The medium was removed until human fibroblast Hs68 cells grow to a confluence of 80%, and the cells were then washed once with 5 ml PBS (phosphate buffered saline). Then, 3 ml phenol red-free medium which contain different concentrations (0 μM to 25 μM) of the compounds of formula (1) or formula (2) prepared in Example 1 were added into the culture dish. After incubating for 1 hour, the cells were irradiated by UV light (UVB with an intensity of 40 mJ/cm^2) for 15 seconds. Next, the phenol red-free medium which contains different concentrations (0 μM to 25 μM) of the compounds of formula (1) or formula (2) prepared in Example 1 were added into the culture dish sequentially. After incubation in an incubator (37° C., 5% CO2) for 48 hours, the cells were collected.\n(§2) The collected cells were treated with a sonication buffer (containing Na3VO4 (100 μM), phenylmethanesulfonyl fluoride (PMSFL, 100 mg/ml), leupeptin (20 mg/ml), Tris-HCl (pH 7.4, 50 μM), NaCl (37.5 μM), DL-dithiothretiol (250 μM), sodium deoxycholate (3 μM), EDTA (1 μM), SDS (0.1%), and Igepal™ CA-630 (Sigma-Aldrich, 1%)) and sonicated to rupture the cell membranes. Then, the organelles and fragments of the cells were precipitated by centrifugation, and the supernatant, which contains proteins in the cytosol was collected. Next, the obtained proteins were separated by SDS-PAGE, and transferred to a membrane by western blotting. Antibodies were used to recognize the targeted proteins, such as MMP-1, MMP-3, MMP-9, and actin. The images were recorded by a Luminescent imagination technology (LAS-4000, FUJIFILM), and the variation of the proteins expression levels were determined by a quantitative analysis software (multi Gauge 2.2, Steware Technology Inc.)."}, "MMP-1": {"tested_on": "MMP-1", "test": "MMP expression, western blot, UVB-irradiated Hs68 cells", "format": "cell-based, human", "settings": "5 μM; UVB 40 mJ/cm^2; 48 hours", "experimental": "as §1, §2"}, "MMP-9": {"tested_on": "MMP-9", "format": "cell-based, human", "settings": "10 μM; UVB 40 mJ/cm^2; 48 hours", "procedure": "After incubating for 1 hour, the cells were irradiated by UV light (UVB with an intensity of 40 mJ/cm^2) for 15 seconds. […] After incubation in an incubator (37° C., 5% CO2) for 48 hours, the cells were collected."}}, "data": [{"smiles": "O=C(C=Cc1ccc(O)c(O)c1)NCCc1ccc(Br)cc1", "note": "[Compound of formula (2)]", "values": [{"measurement": "activity of the tyrosinase in the cells", "setting": "tyrosinase", "result": "inhibited"}, {"measurement": "Cell survival rate (%)", "setting": "[1]; 5 μM", "result": "92.0 ± 1.0", "unit": "%"}, {"measurement": "Cell survival rate (%)", "setting": "[1]; 10 μM", "result": "90.4 ± 2.3", "unit": "%"}, {"measurement": "Cell survival rate (%)", "setting": "[1]; 25 μM", "result": "89.7 ± 2.8", "unit": "%"}, {"measurement": "Cell survival rate (%)", "setting": "[1]; 50 μM", "result": "86.1 ± 1.4", "unit": "%"}, {"measurement": "expression level of c-Fos as compared to that of the untreated cells", "setting": "c-Fos", "result": 1.1}, {"measurement": "expression level of MMP-3 as compared to that of the untreated cells", "setting": "MMP-3", "result": 1.0, "unit": "times"}, {"measurement": "expression level of MMP-1 as compared to that of the untreated cells", "setting": "MMP-1", "result": 1.1, "unit": "times"}, {"measurement": "expression level of MMP-9 as compared to that of the untreated cells", "setting": "MMP-9", "result": 0.7, "unit": "times"}]}]}
